Test results published in patent publication US20060173015A1, “Cyclohexyldiamines as selective alpha 1a/1d adrenoreceptor antagonists for the treatment of benign prostatic hypertrophy and lower urinary tract symptoms” (priority 2004, published 2006).

Legend:
α1a-AR = biological target: T1, α1a-AR (Homo sapiens, UniProt P35348); test: α1-Adrenergic receptor radio-ligand (125I-HEAT) binding assay, α1a subtype; conditions: COS-7 cell membranes, 125I-HEAT
T1 construct: expressed in transfected cells; host or cells: COS-7
T1 sequence (P35348 1-466): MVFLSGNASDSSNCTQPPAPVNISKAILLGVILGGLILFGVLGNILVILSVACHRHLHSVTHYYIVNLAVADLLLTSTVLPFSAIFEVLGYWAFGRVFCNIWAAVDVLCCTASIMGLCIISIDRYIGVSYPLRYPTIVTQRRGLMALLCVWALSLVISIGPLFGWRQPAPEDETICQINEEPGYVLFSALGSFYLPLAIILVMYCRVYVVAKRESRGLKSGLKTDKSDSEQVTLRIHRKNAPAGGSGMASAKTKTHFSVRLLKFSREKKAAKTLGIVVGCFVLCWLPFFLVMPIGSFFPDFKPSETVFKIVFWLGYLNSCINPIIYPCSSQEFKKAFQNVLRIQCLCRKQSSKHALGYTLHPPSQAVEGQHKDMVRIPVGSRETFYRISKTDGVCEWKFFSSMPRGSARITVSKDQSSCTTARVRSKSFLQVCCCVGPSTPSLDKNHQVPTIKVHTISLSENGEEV
Method: (§1) α1-Adrenergic Receptor Binding Assay: Preparation of COS Cell Membranes
(§2) Membranes were prepared from COS-7 cells that had been transfected with one of the three α1-AR subtypes by the following method. COS cells from ten 100 mm tissue culture plates were scraped into 5 mL TE (50 mM Tris-HCl, 5 mM EDTA, pH 7.4). The cell suspension was disrupted with a Brinkman Polytron, setting 8, for 10 sec. The disrupted cells were centrifuged at 1000×g for 10 min at 4° C. Supernatants were centrifuged at 34,500×g for 20 min at 4° C. The membrane pellets were suspended in 2 mL TNE (50 mM Tris-HCl, 5 mM EDTA, 150 mM NaCl, pH7.4). An aliquot of the membrane suspension was stored at −70° C. until use. The protein concentration was determined using the BioRad DC protein assay kit following membrane solubilization with Triton X-100.
(§3) Radio-Ligand Binding Assay
(§4) Triplicate determinations of radio-ligand binding in the presence of increasing: concentrations of testing compound were made. The reagents were added to 96-well polypropylene plate wells using the Biomek 1000 robot (Beckman Instruments). Each assay well contained 140 μl TNE, 25 μL ^125I-HEAT (specific activity 2200 Ci/mmol, Dupont-NEN, 50 pM final), 10 μL testing compound dissolved in DMSO (1 pM to 10 μM in half-log increments, final), and 25 μL appropriate α1-AR membrane subtype suspension in TNE (0.5 ng/μL for the α1a and α1b subtypes and 13 ng/μL for the α1d subtype). The plate was incubated at rt for 1 hr. The contents of the wells were filtered through a GF/C membrane Unifilter plate (Packard Instruments) using the Packard Filtermate cell harvester. The filter plates were dried in a vacuum oven for 30 min at 40° C. 25 μL Microscint 20 liquid scintillation fluid (Packard Instuments) was added to each well. The radioactive content was analyzed in the TopCount microplate scintillation counter (Packard Instruments).

α1b-AR = biological target: T2, α1b-AR (Homo sapiens, UniProt P35368); test: α1-Adrenergic receptor radio-ligand (125I-HEAT) binding assay, α1b subtype; conditions: Receptor Binding, Ki α1b-AR, COS-7 cell membranes, 125I-HEAT
T2 sequence (P35368 1-520): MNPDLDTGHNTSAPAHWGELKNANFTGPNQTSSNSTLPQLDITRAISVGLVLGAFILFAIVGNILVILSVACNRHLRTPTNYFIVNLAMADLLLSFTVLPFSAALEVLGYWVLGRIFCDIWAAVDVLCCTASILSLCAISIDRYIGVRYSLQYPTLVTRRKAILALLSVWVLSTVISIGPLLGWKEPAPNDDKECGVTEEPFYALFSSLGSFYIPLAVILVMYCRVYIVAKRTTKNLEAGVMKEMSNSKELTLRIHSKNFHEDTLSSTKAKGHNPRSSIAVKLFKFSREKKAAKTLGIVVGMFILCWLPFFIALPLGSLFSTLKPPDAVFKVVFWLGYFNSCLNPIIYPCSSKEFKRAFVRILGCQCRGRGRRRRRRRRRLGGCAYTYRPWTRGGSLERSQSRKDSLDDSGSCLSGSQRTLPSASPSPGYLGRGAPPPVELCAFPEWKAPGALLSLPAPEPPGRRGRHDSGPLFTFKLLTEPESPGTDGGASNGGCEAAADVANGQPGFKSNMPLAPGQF

α1d-AR = biological target: T3, α1d-AR (Homo sapiens, UniProt P25100); test: α1-Adrenergic receptor radio-ligand (125I-HEAT) binding assay, α1d subtype; conditions: COS-7 cell membranes, 125I-HEAT; read-out: Receptor Binding, Ki α1d-AR
T3 construct: expressed in transfected cells; host or cells: COS-7
T3 sequence (P25100 1-572): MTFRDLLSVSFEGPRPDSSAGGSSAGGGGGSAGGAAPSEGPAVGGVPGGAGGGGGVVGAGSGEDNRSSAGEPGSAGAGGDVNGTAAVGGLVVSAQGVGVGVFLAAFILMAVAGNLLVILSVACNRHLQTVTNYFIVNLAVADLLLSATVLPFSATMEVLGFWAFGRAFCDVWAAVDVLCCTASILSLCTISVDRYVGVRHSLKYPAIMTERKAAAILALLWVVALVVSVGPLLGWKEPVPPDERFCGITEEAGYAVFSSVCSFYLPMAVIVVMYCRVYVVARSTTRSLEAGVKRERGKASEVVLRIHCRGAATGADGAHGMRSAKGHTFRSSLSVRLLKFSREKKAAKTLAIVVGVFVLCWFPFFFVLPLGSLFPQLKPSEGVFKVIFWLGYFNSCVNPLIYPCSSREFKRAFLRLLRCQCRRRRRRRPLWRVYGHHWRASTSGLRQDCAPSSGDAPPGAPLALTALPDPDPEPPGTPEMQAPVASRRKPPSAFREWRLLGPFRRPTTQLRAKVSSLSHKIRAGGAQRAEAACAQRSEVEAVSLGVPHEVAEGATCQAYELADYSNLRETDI
Method: as §1, §2, §3
as §4, with “Each assay well contained 140 μl TNE, 25 μL ^125I-HEAT (specific activity 2200 Ci/mmol, Dupont-NEN, 50 pM final), 10 μL testing compound dissolved in DMSO (1 pM to 10 μM in half-log increments, final), and 25 μL appropriate α1-AR membrane subtype suspension in TNE (0.5 ng/μL for the α1a and α1b subtypes and 13 ng/μL for the α1d subtype).” left out

SMILES	Ki (α1a-AR)	Ki (α1b-AR)	Ki (α1d-AR)
CC(C)Oc1ccccc1N1CCN([C@H]2CC[C@@H](NS(=O)(=O)c3cccc(F)c3)CC2)CC1 [Cpd 22, 3-Fluoro-N-cis-{4-[4-(2-isopropoxy-phenyl)-piperazin-1-yl]-cyclohexyl}-benzenesulfonamide]	3.5 nM	108 nM	3.3 nM
CC(C)Oc1ccccc1N1CCN([C@H]2CC[C@@H](NS(=O)(=O)c3ccccc3)CC2)CC1 [Cpd 25]	13.7 nM	111 nM	5.2 nM
CC(C)Oc1ccccc1N1CCN([C@H]2CC[C@@H](NS(=O)(=O)c3ccccc3[N+](=O)[O-])CC2)CC1 [Cpd 26]	6.3 nM	201 nM	2.5 nM
CC(C)Oc1ccccc1N1CCN([C@H]2CC[C@H](NS(=O)(=O)c3ccc(Cl)cc3Cl)CC2)CC1 [Cpd 29, 2,4-Dichloro-N-trans-{4-[4-(2-isopropoxy-phenyl)-piperazine-1-yl]-cyclohexyl}-benzenesulfonamide]	1.6 nM	596 nM	8.6 nM
COc1ccc(C)cc1S(=O)(=O)N[C@H]1CC[C@H](N2CCN(c3ccccc3OC(C)C)CC2)CC1 [Cpd 32, N-trans-{4-[4-(2-Isopropoxy-phenyl)-piperazin-1-yl]-cyclohexyl}-2-methoxy-5-methyl-benzenesulfonamide]	0.9 nM	218 nM	31 nM
CC(C)Oc1ccccc1N1CCN([C@H]2CC[C@H](NS(=O)(=O)c3ccccc3S(C)(=O)=O)CC2)CC1 [Cpd 33, N-trans-{4-[4-(2-Isopropoxy-phenyl)-piperazin-1-yl]-cyclohexyl}-2-methanesulfonyl-benzenesulfonamide]	12.5 nM	118 nM	2.8 nM
CC(C)Oc1ccccc1N1CCN([C@H]2CC[C@H](NS(=O)(=O)c3ccc(C(F)(F)F)cc3)CC2)CC1 [Cpd 37, N-trans-{4-[4-(2-Isopropoxy-phenyl)-piperazin-1-yl]-cyclohexyl}-4-trifluoromethyl-benzenesulfonamide]	67 nM	931 nM	65 nM
CC(C)Oc1ccccc1N1CCN([C@H]2CC[C@H](NS(=O)(=O)c3ccc(F)cc3)CC2)CC1 [Cpd 38, 4-Fluoro-N-trans-{4-[4-(2-isopropoxy-phenyl)-piperazin-1-yl]-cyclohexyl}-benzenesulfonamide]	1.3 nM	301 nM	36 nM
Cc1c(Cl)cccc1S(=O)(=O)N[C@H]1CC[C@H](N2CCN(c3ccccc3OC(C)C)CC2)CC1 [Cpd 39, 3-Chloro-N-trans-{4-[4-(2-isopropoxy-phenyl)-piperazin-1-yl]-cyclohexyl}-2-methyl-benzenesulfonamide]	1.1 nM	554 nM	5.4 nM
CC(C)Oc1ccccc1N1CCN([C@H]2CC[C@H](NS(=O)(=O)c3cc(Cl)ccc3F)CC2)CC1 [Cpd 40, 5-Chloro-2-fluoro-N-trans-{4-[4-(2-isopropoxy-phenyl)-piperazin-1-yl]-cyclohexyl}-benzenesulfonamide]	8.9 nM	441 nM	27.3 nM
CC(C)Oc1ccccc1N1CCN([C@H]2CC[C@H](NS(=O)(=O)c3ccccc3C(F)(F)F)CC2)CC1 [Cpd 41, N-trans-{4-[4-(2-Isopropoxy-phenyl)-piperazin-1-yl]-cyclohexyl}-2-trifluoromethyl-benzenesulfonamide]	18.1 nM	844 nM	246 nM
CC(C)Oc1ccccc1N1CCN([C@H]2CC[C@H](NS(=O)(=O)c3ccc(F)c(Cl)c3)CC2)CC1 [Cpd 42, 3-Chloro-4-fluoro-N-trans-{4-[4-(2-isopropoxy-phenyl)-piperazin-1-yl]-cyclohexyl}-benzenesulfonamide]	6.6 nM	2300 nM	72 nM
COc1ccc(F)cc1S(=O)(=O)N[C@H]1CC[C@H](N2CCN(c3ccccc3OC(C)C)CC2)CC1 [Cpd 43, 5-Fluoro-N-trans-{4-[4-(2-isopropoxy-phenyl)-piperazin-1-yl]-cyclohexyl}-2-methoxy-benzenesulfonamide]	11 nM	714 nM	66 nM
CC(C)Oc1ccccc1N1CCN([C@H]2CC[C@H](NS(=O)(=O)c3ccc(OC(F)(F)F)cc3)CC2)CC1 [Cpd 45, N-trans-{4-[4-(2-Isopropoxy-phenyl)-piperazin-1-yl]-cyclohexyl}-4-trifluoromethoxy-benzenesulfonamide]	100 nM	1250 nM	111 nM
Cc1ccc(S(=O)(=O)N[C@H]2CC[C@H](N3CCN(c4ccccc4OC(C)C)CC3)CC2)cc1Cl [Cpd 46, 3-Chloro-N-trans-{4-[4-(2-isopropoxy-phenyl)-piperazin-1-yl]-cyclohexyl}-4-methyl-benzenesulfonamide]	1.5 nM	193 nM	16 nM
COc1ccc([N+](=O)[O-])cc1S(=O)(=O)N[C@H]1CC[C@H](N2CCN(c3ccccc3OC(C)C)CC2)CC1 [Cpd 47, N-trans-{4-[4-(2-Isopropoxy-phenyl)-piperazin-1-yl]-cyclohexyl}-2-methoxy-5-nitro-benzenesulfonamide]	1 nM	173 nM	22 nM
COc1ccc(C(F)(F)F)cc1S(=O)(=O)N[C@H]1CC[C@H](N2CCN(c3ccccc3OC(C)C)CC2)CC1 [Cpd 48, N-trans-{4-[4-(2-Isopropoxy-phenyl)-piperazin-1-yl]-cyclohexyl}-2-methoxy-5-trifluoromethyl-benzenesulfonamide]	24.5 nM	258 nM	1.5 nM
CC(C)Oc1ccccc1N1CCN([C@H]2CC[C@H](NS(=O)(=O)c3cccc(F)c3)CC2)CC1 [Cpd 50, 3-Fluoro-N-trans-{4-[4-(2-isopropoxy-phenyl)-piperazin-1-yl]-cyclohexyl}-benzenesulfonamide]	0.73 nM	545 nM	24.5 nM
